According to article PMC11334910, “Activity-Based Protein Profiling of RHBDL4 Reveals Proteolysis of the Enzyme and a Distinct Inhibitor Profile” (ACS Chemical Biology, 2024):
Where two headings read alike, the source gives them in different places. One block for each molecule: values may come before it.

How the values were obtained:
[1] = biological target: T1, hPARL (presenilin-associated rhomboid-like protein, mitochondrial) (Homo sapiens, UniProt Q9H300); experiment: competitive ABPP, dose-response; format: cell-based
T1 construct: gene PARL; hPARL in HEK293T membrane proteome
T1 sequence (Q9H300 53-379): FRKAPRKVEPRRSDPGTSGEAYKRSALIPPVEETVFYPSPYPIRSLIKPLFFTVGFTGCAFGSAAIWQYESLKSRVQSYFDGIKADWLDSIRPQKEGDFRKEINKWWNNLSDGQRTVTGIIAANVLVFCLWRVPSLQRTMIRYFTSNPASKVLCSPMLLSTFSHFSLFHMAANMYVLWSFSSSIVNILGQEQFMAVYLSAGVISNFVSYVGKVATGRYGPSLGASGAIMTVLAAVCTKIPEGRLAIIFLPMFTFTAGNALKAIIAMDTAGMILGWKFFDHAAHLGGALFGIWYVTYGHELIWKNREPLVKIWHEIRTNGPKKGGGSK

human RHBDL4 (hRHBDL4) [2] = biological target: T2, human RHBDL4 (hRHBDL4) (Homo sapiens, UniProt Q8TEB9); experiment: competitive ABPP with FP-Rh at […]; format: biochemical; set-up: gene RHBDD1; hRHBDL4 in HEK293T membrane proteome
T2 sequence (Q8TEB9 1-315): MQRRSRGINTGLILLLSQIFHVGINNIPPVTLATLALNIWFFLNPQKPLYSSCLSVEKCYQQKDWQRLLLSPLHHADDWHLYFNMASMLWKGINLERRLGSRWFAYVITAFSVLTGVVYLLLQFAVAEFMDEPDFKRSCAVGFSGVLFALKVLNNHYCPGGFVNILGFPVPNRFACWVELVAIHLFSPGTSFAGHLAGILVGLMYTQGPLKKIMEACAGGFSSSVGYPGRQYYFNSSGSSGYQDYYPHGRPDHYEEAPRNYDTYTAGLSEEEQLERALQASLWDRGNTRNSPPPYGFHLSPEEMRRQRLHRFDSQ

[3] = biological target: T1, hPARL (presenilin-associated rhomboid-like protein, mitochondrial); experiment: competitive ABPP, dose-response; format: biochemical
human RHBDL4 (hRHBDL4) [4] = biological target: T2, human RHBDL4 (hRHBDL4); experiment: competitive ABPP with FP-Rh, dose-response; format: biochemical; set-up: gene RHBDD1

IC50 [1]: low micromolar
Compound: O=C1CCC(=O)N1S(=O)(=O)c1ccccc1 [WHP3A]

competitive ABPP with FP-Rh at 100 μM (human RHBDL4 (hRHBDL4) [2]): nearly complete competition at 100
Compound: O=C(OCN1C(=O)c2ccccc2S1(=O)=O)c1ccccc1Cl [BSc5195]

Compound: O=c1oc(Cl)c(Cl)c2ccccc12 [3,4-DCI]
IC50 [3]: 25 µM | IC50 (human RHBDL4 (hRHBDL4) [4]): 1.1 µM
